Experimental data: patent US20220008409A1, “CANCER COMBINATION THERAPY USING QUINOLINE CARBOXAMIDE DERIVATIVE” (KABUSHIKI KAISHA YAKULT HONSHA, priority 2018, published 2022)

Key:
[1] = test system: NCI-H2228; assay: Combination effect by median-effect method, WST-8 assay; assay type: cell-based, Human; details: in combination with STX-1159, 72 hours
Source text: (§1) NCI-H2228, NCI-H1975, SK-BR-3, Hep3B, MCF-7, Caov-3, A2058, K562 and SUP-B15 were purchased from American Type Culture Collection, SAS and HuH-7 were purchased from National Institutes of Biomedical Innovation, Health and Nutrition, and K1, FTC-133 and Ishikawa were purchased European Collection of Authenticated Cell Cultures. […] Fetal bovine serum (hereinafter, abbreviated as FBS) and MCDB 105 culture medium were purchased from Sigma Aldrich (Cat. Nos. 172012 and 117-500), and RMPI1640 culture medium, DMEM medium, Ham's F-12 medium, MEM medium and IMDM culture medium were purchased Thermo Fisher Scientific (Cat. Nos. A1049101, 11995-065, 11765-054, 11095-080 and 12440-053).
(§2) The agents were singly added one day after the cells were inoculated. […] The absorbance of water-soluble formazan generated by enzymatic activity of mitochondria in cells was measured at 450 nm using a microplate reader (Molecular Devices, Model: SpectraMax Plus). This was evaluated as the viable cell count to calculate a 50% cell growth inhibitory concentration (hereinafter, abbreviated as IC50). The reference dose of each agent was set based on IC50 (Table 3).
(§3) One day after the cells were inoculated, for single groups, STX-1159 and the agents were each added so as to be a final concentration which is ¼ times, ½ times, 1 time, 2 times or 4 times the reference dose, and for combination groups, STX-1159 and the agents were added so as to be a final concentration where STX-1159 and the agents combined were each ¼ times, ½ times, 1 time, 2 times or 4 times the reference dose. […] The fraction affected (hereinafter, abbreviated as fa) was calculated from the following expression:
(§4) fa=1−(viable cell count in agent exposure group)/(viable cell count in control group).
(§5) By a median-effect method using combination effect analyzing software CalcuSyn (HULINKS), the combination index (hereinafter, abbreviated as CI) was calculated from fa obtained when STX-1159 and the agents were exposed alone or in combination. Evaluation of the combination effect was based on grading by CI in Table 4. In calculation of CI, the average of the values from two or more experiments was employed.

[2] = target: T1, phosphorylated STAT3 (Homo sapiens, UniProt P40763); assay: Western blotting in NCI-H2228 cells; assay type: cell-based; details: 24 hours
T1 construct: endogenous in cells; host or cells: NCI-H2228

[3] = test system: c-myc; assay: Western blotting in NCI-H2228 cells; assay type: cell-based, Human; details: 24 hours
[4] = Combination effect by median-effect method, summary over the cell lines of Example 1; assay type: cell-based; details: in combination with STX-1159; summary of Table 5
Method: The fraction affected (hereinafter, abbreviated as fa) was calculated from the following expression: fa=1-(viable cell count in agent exposure group)/(viable cell count in control group). […] Evaluation of the combination effect was based on grading by CI in Table 4. In calculation of CI, the average of the values from two or more experiments was employed.

[5] = test system: Caov-3; details: in combination with STX-1159, 72 hours
Source text: as §1
(§6) The cells were inoculated on a 96-well plate to the density shown in Table 2, and were cultured under conditions of 5% CO2 and 37° C. The agents were singly added one day after the cells were inoculated. To the control group was added DMSO, so as to be a final concentration of 0.05%. Subsequently, the cells were cultured under conditions of 5% CO2 and 37° C. for the time shown in Table 2, and the number living cells was evaluated by WST-8 assay. That is, 10 μL of a WST-8 kit solution (Kishida Chemical Co., ltd, Cat. No. 260-96162) was added to each well, and the cells were cultured under conditions of 5% CO2 and 37° C. for 1 to 2 hours. The absorbance of water-soluble formazan generated by enzymatic activity of mitochondria in cells was measured at 450 nm using a microplate reader (Molecular Devices, Model: SpectraMax Plus). This was evaluated as the viable cell count to calculate a 50% cell growth inhibitory concentration (hereinafter, abbreviated as IC50).
(§7) The cells were inoculated on a 96-well plate so as to be the density shown in Table 2, and were cultured under conditions of 5% CO2 and 37° C. One day after the cells were inoculated, for single groups, STX-1159 and the agents were each added so as to be a final concentration which is ¼ times, ½ times, 1 time, 2 times or 4 times the reference dose, and for combination groups, STX-1159 and the agents were added so as to be a final concentration where STX-1159 and the agents combined were each ¼ times, ½ times, 1 time, 2 times or 4 times the reference dose. To the control group was added DMSO, so as to be a final concentration of 0.1%. Subsequently, the cells were cultured under conditions of 5% CO2 and 37° C. for the time shown in Table 2, and the number living cells was measured by WST-8 assay. The fraction affected (hereinafter, abbreviated as fa) was calculated from the following expression:
as §4, §5

[6] = test system: Ishikawa; details: in combination with STX-1159, 72 hours
Source text: as §1, §6, §7, §4, §5

[7] = test system: MCF-7; details: in combination with STX-1159, 72 hours
Source text: as §1, §6, §7, §4, §5

[8] = test system: SK-BR-3; assay: Combination effect by median-effect method, WST-8 assay; assay type: cell-based, Human; details: in combination with STX-1159, 72 hours
Source text: as §1, §6, §7, §4, §5

[9] = test system: Hep3B; assay: as above; assay type: cell-based, Human; details: in combination with STX-1159, 72 hours
Source text: as §1, §2, §3, §4, §5

[10] = test system: HuH-7; assay: as above; assay type: cell-based, Human; details: in combination with STX-1159, 72 hours
Source text: as §1, §2, §3, §4, §5

[11] = test system: NCI-H1975; assay: as above; assay type: cell-based, Human; details: in combination with STX-1159, 72 hours
Source text: as §1, §2, §3, §4, §5

[12] = test system: survivin; assay: Western blotting in NCI-H2228 cells; assay type: cell-based, Human; details: agent alone, STX-1159 5 μM, 24 hours
[13] = test system: K1; assay: Combination effect by median-effect method, WST-8 assay; assay type: cell-based, Human; details: in combination with STX-1159, 72 hours
Source text: as §1, §2, §3, §4, §5

[14] = test system: FTC-133; details: in combination with STX-1159, 72 hours
Source text: as §1, §6, §7, §4, §5

[15] = test system: SAS; details: in combination with STX-1159, 48 hours
Source text: as §1, §6, §7, §4, §5

[16] = agent alone, STX-1159 5 μM, alectinib 0.01 or 0.1 μM
[17] = both agents in combination (STX-1159 5 μM, alectinib 0.01 or 0.1 μM) versus each single agent

T1 sequence (P40763 whole entry): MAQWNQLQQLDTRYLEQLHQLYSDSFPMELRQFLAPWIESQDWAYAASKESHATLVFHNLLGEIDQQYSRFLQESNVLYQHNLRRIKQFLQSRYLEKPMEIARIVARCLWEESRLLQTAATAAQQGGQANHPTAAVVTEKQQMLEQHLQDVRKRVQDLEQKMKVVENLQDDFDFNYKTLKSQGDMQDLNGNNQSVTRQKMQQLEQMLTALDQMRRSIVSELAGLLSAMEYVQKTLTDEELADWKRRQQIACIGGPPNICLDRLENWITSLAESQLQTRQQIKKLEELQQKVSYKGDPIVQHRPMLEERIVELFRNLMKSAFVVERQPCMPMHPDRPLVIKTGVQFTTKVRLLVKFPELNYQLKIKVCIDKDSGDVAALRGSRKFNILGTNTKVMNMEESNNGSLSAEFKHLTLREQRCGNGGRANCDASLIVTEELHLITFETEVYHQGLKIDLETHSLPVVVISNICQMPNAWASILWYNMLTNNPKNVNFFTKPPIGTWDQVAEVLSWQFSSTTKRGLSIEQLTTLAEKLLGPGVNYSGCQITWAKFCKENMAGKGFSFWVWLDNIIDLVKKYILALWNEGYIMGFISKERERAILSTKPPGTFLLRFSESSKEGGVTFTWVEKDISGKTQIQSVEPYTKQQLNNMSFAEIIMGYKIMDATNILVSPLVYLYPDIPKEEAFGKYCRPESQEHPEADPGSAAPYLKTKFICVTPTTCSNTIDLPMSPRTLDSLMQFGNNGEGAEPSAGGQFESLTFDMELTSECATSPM

## CCc1cc2c(cc1N1CCC(N3CCOCC3)CC1)C(C)(C)c1[nH]c3cc(C#N)ccc3c1C2=O [Alectinib]
[1]
  CI: 0.57
  Combination effect: Synergetic effect (0.3 < CI ≤ 0.7)
[2]; [16]
  amount of phosphorylated STAT3: reduced
[2]; [17]
  amount of phosphorylated STAT3: more reduced
[3]; [16]
  amount of c-myc: reduced
[3]; [17]
  amount of c-myc: more reduced
[4]
  combination effect by the median-effect method: synergetic effect

## CO[C@H]1C[C@@H]2CC[C@@H](C)[C@@](O)(O2)C(=O)C(=O)N2CCCC[C@H]2C(=O)O[C@H]([C@H](C)C[C@@H]2CC[C@@H](OCCO)[C@H](OC)C2)CC(=O)[C@H](C)/C=C(\C)[C@@H](O)[C@@H](OC)C(=O)[C@H](C)C[C@H](C)/C=C/C=C/C=C/1C [Everolimus, everolimus]
[5]
  CI: 0.90
  Combination effect: Light synergetic effect (0.85 < CI ≤ 0.9)
[6]
  CI: 0.89
  Combination effect: Light synergetic effect (0.85 < CI ≤ 0.9)
[7]
  CI: 0.73
  Combination effect: Moderate synergetic effect (0.7 < CI ≤ 0.85)
[4]
  combination effect by the median-effect method: synergetic effect

## CS(=O)(=O)CCNCc1ccc(-c2ccc3ncnc(Nc4ccc(OCc5cccc(F)c5)c(Cl)c4)c3c2)o1 [Lapatinib, lapatinib]
[8]
  CI: 0.88
  Combination effect: Light synergetic effect (0.85 < CI ≤ 0.9)
[4]
  combination effect by the median-effect method: synergetic effect

## COc1cc2nccc(Oc3ccc(NC(=O)NC4CC4)c(Cl)c3)c2cc1C(N)=O [Lenvatinib, lenvatinib]
[9]
  CI: 0.75
  Combination effect: Moderate synergetic effect (0.7 < CI ≤ 0.85)
[10]
  CI: 0.85
  Combination effect: Moderate synergetic effect (0.7 < CI ≤ 0.85)
[4]
  combination effect by the median-effect method: synergetic effect

## C=CC(=O)Nc1cc(Nc2nccc(-c3cn(C)c4ccccc34)n2)c(OC)cc1N(C)CCN(C)C [Osimertinib, osimertinib]
[11]
  CI: 0.81
  Combination effect: Moderate synergetic effect (0.7 < CI ≤ 0.85)
[4]
  combination effect by the median-effect method: synergetic effect

## O=C(Nc1nnc(-c2ccco2)o1)c1cc(-c2ccccc2)nc2ccc(OC(F)(F)F)cc12 [STX-1159, N-[5-(2-furyl)-1,3,4-oxadiazol-2-yl]-2-phenyl-6-tri fluoromethoxy-4-quinoline carboxamide]
[2]; [16]
  amount of phosphorylated STAT3: reduced
[12]
  amount of survivin: reduced
[3]; [16]
  amount of c-myc: reduced

## CNC(=O)c1cc(Oc2ccc(NC(=O)Nc3ccc(Cl)c(C(F)(F)F)c3)cc2)ccn1 [Sorafenib]
[13]
  CI: 0.77
  Combination effect: Moderate synergetic effect (0.7 < CI ≤ 0.85)
[14]
  CI: 0.85
  Combination effect: Light synergetic effect (0.85 < CI ≤ 0.9)
[15]
  CI: 0.56
  Combination effect: Synergetic effect (0.3 < CI ≤ 0.7)
[4]
  combination effect by the median-effect method: synergetic effect
